Data taken from patent US20020055458A1, “Method for the prevention and treatment of retinopathy” (priority 2000, published 2002).

Tests used:
[1] = system: diabetic retinopathy in patients with diabetes mellitus; assay: Retrospective clinical study of progression of diabetic retinopathy in diabetics on glaucoma eye drops; type: in vivo, human; conditions: for two year event rate (progression of retinopathy): diabetic patients on eye drops for glaucoma or ocular hypertension, 2 years from onset of medication, CAI group n=19, non-CAI group n=12
Protocol: In a retrospective clinical study, the hypothesis that dorzolamide eye drops (Trusopt®) used bid or tid for glaucoma or ocular hypertension would slow the progression of diabetic retinopathy in patients with diabetes mellitus was tested. Since 1980, a screening program has been in place for diabetic eye disease at the Department of Ophthalmology, University of Iceland, Reykjavik, Iceland. Eye examinations of diabetic patients have been performed annually and examination results have been documented. A retrospective study was undertaken to find those diabetics who were using CAIs or beta-blockers (such as timolol) for either glaucoma or ocular hypertension. These candidates were selected from the general population of the screening program. In total, 31 patients were found. Of these 31, 19 were prescribed CAIs or a combination of CAIs and beta-blockers. The remaining 12 patients were taking a non-CAI medication and served as a control group in the study. The examination findings were reviewed to determine if the changes in retinopathy rating could be associated with CAI use. Also noted was historical information such as length of time since diabetes had been diagnosed, type of medication and time span of usage, visual acuity and other relevant comments. Of those using a CAI, 12 were men and seven were women. The mean age was 67 (range 28-80) for men and 73 (range 62-81) for women. The average time since diagnosis of diabetes mellitus was 14.1 years (SD=9.7 years). The average frequency of check-ups was every 9.1 months (SD=10.7 months). There was an average of 7.4 years of eye examinations and fundus photographs on record (SD=6 years) and the patients were on a CAI for an average of 18.2 months (SD=14.4 months). Of those in the non-CAI (control) group, seven were men and five were women. The mean age was 73 (range 54-82) for men and 75 (range 67-86) for women. The average time since diabetic diagnosis was 15.3 years (SD=7.8 years). The average frequency of check-ups was every 10.9 months (SD=7.9 months). There was an average of 6.2 years of eye examinations and fundus photographs on record (SD=4 years) and the patients were on medication for an average of 58.8 months (SD=52.4 months).

[2] = system: optic nerve oxygen tension (ONPo2); conditions: pig; Stefánsson et al., IOVS 1999; cited from earlier work

Structure (SMILES) | two year event rate (progression of retinopathy) [1] | development of sight-threatening retinopathy during the treatment period ([1]; diabetics in the treated group) | rate of progression of diabetic retinopathy compared with diabetics receiving timolol eye drops and with the total population of diabetics in Iceland ([1]; diabetics using eye drops on a regular basis) | effect on optic nerve oxygen tension (ONPo2) [2] | overall event rate (retinopathy change) for the entire observation period ([1]; non-CAI (control) group, 12 diabetic patients, entire observation period)
CCN[C@H]1C[C@H](C)S(=O)(=O)c2sc(S(N)(=O)=O)cc21 [dorzolamide] | 0% | none | lower rate of progression of diabetic retinopathy | increased ONPo2 | –
CC(=O)Nc1nnc(S(N)(=O)=O)s1 [Acetazolamide, N-[5-(aminosulfonyl)-1,3,4-thiadiazol-2-yl]acetamide] | – | – | – | increased ONPo2 | –
CC(C)(C)NC[C@H](O)COc1nsnc1N1CCOCC1 [timolol] | 8.3% | – | – | – | 25%
